Experimental data: patent publication US5593984A, “Cephalosporin derivatives” (Yuhan Corporation, priority 1992, dated 1997)
≈ marks a conversion by molar mass, not a printed value.

Columns and labels:
Format in all cases: cell-based
B. subtilis ATCC 6633 = test: MIC by agar dilution, B. subtilis ATCC 6633; conditions: Bacillus subtilis, ATCC6633, 17 h; B. subtilis ATCC 6633; agar dilution, Mueller-Hinton agar; read-out: Minimal Inhibitory Concentration (MIC)
Description: (§1) These MIC values were determined by agar dilution method: that is, two-fold dilutions of each of the test compounds were made and dispersed in a Mueller-Hinton agar medium; standard test strain which had the 10^6 CFU (Colony Forming Unit) per ml was inoculated on the medium with microplanter (Toyo, Japan), and incubated at 35°-37° C. for 17±1 hours. The structures of Ceftazidime (CAZ) and Cefotaxime (CTX) which are used as control compounds are as follows: [drawing 12]

Staph. aureus ATCC 6538P = test: MIC by agar dilution, Staph. aureus ATCC 6538P; conditions: Staphylococcus aureus, ATCC6538P, 17 h; Staph. aureus ATCC 6538P; agar dilution, Mueller-Hinton agar; read-out: Minimal Inhibitory Concentration (MIC)
Description: as §1

Staph. aureus Smith = test: MIC by agar dilution, Staph. aureus Smith; conditions: Staphylococcus aureus, 17 h, Mueller-Hinton agar, read-out: Minimal Inhibitory Concentration (MIC)
Description: as §1

Staph. aureus C-57 = test: MIC by agar dilution, Staph. aureus C-57; conditions: Staphylococcus aureus, C57, 17 h, Mueller-Hinton agar, read-out: Minimal Inhibitory Concentration (MIC)
Description: as §1

Staph. aureus C-5113 = test: MIC by agar dilution, Staph. aureus C-5113; conditions: Staphylococcus aureus, C5113, 17 h, Mueller-Hinton agar, read-out: Minimal Inhibitory Concentration (MIC)
Description: as §1

Staph. aureus C-5216 = test: MIC by agar dilution, Staph. aureus C-5216; conditions: Staphylococcus aureus, C5216, 17 h, Mueller-Hinton agar, read-out: Minimal Inhibitory Concentration (MIC)
Description: as §1

[1] = test system: S. epidermidis ATCC 12228; test: MIC by agar dilution, S. epidermidis ATCC 12228; conditions: Staphylococcus epidermidis, ATCC12228, 17 h; S. epidermidis ATCC 12228; agar dilution, Mueller-Hinton agar; read-out: Minimal Inhibitory Concentration (MIC)
Description: as §1

Ent. aerogenes IFO 12979 = test: MIC by agar dilution, Ent. aerogenes IFO 12979; conditions: Klebsiella aerogenes, IFO12979, 17 h, Mueller-Hinton agar, read-out: Minimal Inhibitory Concentration (MIC)
Description: as §1

Ent. cloacae IFO 13535 = test: MIC by agar dilution, Ent. cloacae IFO 13535; conditions: Enterobacter cloacae, IFO13535, 17 h; Ent. cloacae IFO 13535; agar dilution, Mueller-Hinton agar; read-out: Minimal Inhibitory Concentration (MIC)
Description: as §1

E. coli NIHJ JC-2 = test: MIC by agar dilution, E. coli NIHJ JC-2; conditions: Escherichia coli, NIHJJC2, 17 h; E. coli NIHJ JC-2; agar dilution, Mueller-Hinton agar; read-out: Minimal Inhibitory Concentration (MIC)
Description: as §1

E. coli No. 29 = test: MIC by agar dilution, E. coli No. 29; conditions: Escherichia coli, 17 h; E. coli No. 29; agar dilution, Mueller-Hinton agar; read-out: Minimal Inhibitory Concentration (MIC)
Description: as §1

E. coli DY-1 = test: MIC by agar dilution, E. coli DY-1; conditions: Escherichia coli, DY1, 17 h; E. coli DY-1; agar dilution, Mueller-Hinton agar; read-out: Minimal Inhibitory Concentration (MIC)
Description: as §1

K. pneumoniae NCTC 9632 = test: MIC by agar dilution, K. pneumoniae NCTC 9632; conditions: Klebsiella pneumoniae, NCTC9632, 17 h; K. pneumoniae NCTC 9632; agar dilution, Mueller-Hinton agar; read-out: Minimal Inhibitory Concentration (MIC)
Description: as §1

M. morganii DY-1 = test: MIC by agar dilution, M. morganii DY-1; conditions: Morganella morganii, DY1, 17 h; M. morganii DY-1; agar dilution, Mueller-Hinton agar; read-out: Minimal Inhibitory Concentration (MIC)
Description: as §1

[2] = test system: Ps. aeruginosa ATCC 10145; test: MIC by agar dilution, Ps. aeruginosa ATCC 10145; conditions: Pseudomonas aeruginosa, ATCC10145, 17 h, Mueller-Hinton agar, read-out: Minimal Inhibitory Concentration (MIC)
Description: as §1

[3] = test system: Ps. aeruginosa NCTC 10490; test: MIC by agar dilution, Ps. aeruginosa NCTC 10490; conditions: Pseudomonas aeruginosa, NCTC10490, 17 h, Mueller-Hinton agar, read-out: Minimal Inhibitory Concentration (MIC)
Description: as §1

Ps. aeruginosa DY-2 = test: MIC by agar dilution, Ps. aeruginosa DY-2; conditions: Pseudomonas aeruginosa, DY2, 17 h; Ps. aeruginosa DY-2; agar dilution, Mueller-Hinton agar; read-out: Minimal Inhibitory Concentration (MIC)
Description: as §1

P. vulgaris NCTC 8313 = test: MIC by agar dilution, P. vulgaris NCTC 8313; conditions: Proteus vulgaris, NCTC8313, 17 h; P. vulgaris NCTC 8313; agar dilution, Mueller-Hinton agar; read-out: Minimal Inhibitory Concentration (MIC)
Description: as §1

Prov. stuartii IFO 12930 = test: MIC by agar dilution, Prov. stuartii IFO 12930; conditions: Providencia stuartii, IFO12930, 17 h, Mueller-Hinton agar, read-out: Minimal Inhibitory Concentration (MIC)
Description: as §1

[4] = test system: Ser. marcescens IFO 12648; test: MIC by agar dilution, Ser. marcescens IFO 12648; conditions: Serratia marcescens, IFO12648, 17 h; Ser. marcescens IFO 12648; agar dilution, Mueller-Hinton agar; read-out: Minimal Inhibitory Concentration (MIC)
Description: as §1

| MIC (B. subtilis ATCC 6633) [µg/mL] | MIC (Staph. aureus ATCC 6538P) [µg/mL] | MIC (Staph. aureus Smith) [µg/mL] | MIC (Staph. aureus C-57) [µg/mL] | MIC (Staph. aureus C-5113) [µg/mL] | MIC (Staph. aureus C-5216) [µg/mL] | MIC [1] [µg/mL] | MIC (Ent. aerogenes IFO 12979) [µg/mL] | MIC (Ent. cloacae IFO 13535) [µg/mL] | MIC (E. coli NIHJ JC-2) [µg/mL] | MIC (E. coli No. 29) [µg/mL] | MIC (E. coli DY-1) [µg/mL] | MIC (K. pneumoniae NCTC 9632) [µg/mL] | MIC (M. morganii DY-1) [µg/mL] | MIC [2] [µg/mL] | MIC [3] [µg/mL] | MIC (Ps. aeruginosa DY-2) [µg/mL] | MIC (P. vulgaris NCTC 8313) [µg/mL] | MIC (Prov. stuartii IFO 12930) [µg/mL] | MIC [4] [µg/mL] | SMILES |
| --- | --- | --- | --- | --- | --- | --- | --- | --- | --- | --- | --- | --- | --- | --- | --- | --- | --- | --- | --- | --- |
| 0.1 (≈ 0.179 µM) | 0.2 (≈ 0.359 µM) | 1.56 (≈ 2.8 µM) | 25 (≈ 44.8 µM) | 6.25 (≈ 11.2 µM) | 3.13 (≈ 5.61 µM) | 0.2 (≈ 0.359 µM) | 0.025 (≈ 0.0448 µM) | 0.2 (≈ 0.359 µM) | 0.05 (≈ 0.0897 µM) | 0.012 (≈ 0.0215 µM) | ≤ 0.006 | 0.05 (≈ 0.0897 µM) | 0.025 (≈ 0.0448 µM) | 1.56 (≈ 2.8 µM) | 0.78 (≈ 1.4 µM) | 3.13 (≈ 5.61 µM) | 0.012 (≈ 0.0215 µM) | 0.025 (≈ 0.0448 µM) | 0.05 (≈ 0.0897 µM) | CCON=C(C(=O)NC1C(=O)N2C(C(=O)[O-])=C(C[n+]3ccn4ccc(CO)c4c3)CSC12)c1csc(N)n1 (stereo not drawn) [Ex. 31, 7-β-[(Z)-2-(2-aminothiazol-4-yl)2-ethoxyiminoacetamido]-3-(8-hydroxymethylpyrrolo[1,2-a]pyrazinium-2-yl)methyl-3-cephem-4-carboxylate] |
| 0.78 (≈ 1.33 µM) | 1.56 (≈ 2.65 µM) | 6.25 (≈ 10.6 µM) | 100 (≈ 170 µM) | 6.25 (≈ 10.6 µM) | 12.5 (≈ 21.3 µM) | 0.39 (≈ 0.664 µM) | 0.012 (≈ 0.0204 µM) | 0.2 (≈ 0.34 µM) | 0.025 (≈ 0.0425 µM) | 0.025 (≈ 0.0425 µM) | 0.025 (≈ 0.0425 µM) | 0.012 (≈ 0.0204 µM) | 0.012 (≈ 0.0204 µM) | 0.78 (≈ 1.33 µM) | 0.39 (≈ 0.664 µM) | 3.13 (≈ 5.33 µM) | ≤ 0.006 | ≤ 0.006 | 0.012 (≈ 0.0204 µM) | Nc1nc(C(=NOCC(=O)O)C(=O)NC2C(=O)N3C(C(=O)[O-])=C(C[n+]4ccn5c(CO)ccc5c4)CSC23)cs1 (stereo not drawn) [Ex. 23, 7-β-[(Z)-2-(2-aminothiazol-4-yl)-2-carboxymethoxyiminoacetamido]-3-(6-hydroxymethylpyrrolo[1,2-a]pyrazinium-2-yl)methyl-3-cephem-4-carboxylate] |
| 0.1 (≈ 0.175 µM) | 0.2 (≈ 0.351 µM) | 0.78 (≈ 1.37 µM) | 12.5 (≈ 21.9 µM) | 1.56 (≈ 2.73 µM) | 1.56 (≈ 2.73 µM) | 0.05 (≈ 0.0876 µM) | 0.025 (≈ 0.0438 µM) | 0.78 (≈ 1.37 µM) | 0.1 (≈ 0.175 µM) | 0.05 (≈ 0.0876 µM) | 0.025 (≈ 0.0438 µM) | 0.025 (≈ 0.0438 µM) | 0.025 (≈ 0.0438 µM) | 1.56 (≈ 2.73 µM) | 0.39 (≈ 0.683 µM) | 6.25 (≈ 11 µM) | 0.012 (≈ 0.021 µM) | 0.025 (≈ 0.0438 µM) | 0.1 (≈ 0.175 µM) | CCON=C(C(=O)NC1C(=O)N2C(C(=O)[O-])=C(C[n+]3ccn4c(C(N)=O)ccc4c3)CSC12)c1csc(N)n1 (stereo not drawn) [Ex. 16, 7-β-[(Z)-2-(2-aminothiazol-4-yl)-2-ethoxyiminoacetamido]-3-(6-carbamoylpyrrolo[1,2-a]pyrazinium-2-yl)methyl-3-cephem-4-carboxylate] |
| 0.2 (≈ 0.378 µM) | 0.1 (≈ 0.189 µM) | 0.78 (≈ 1.48 µM) | 1.56 (≈ 2.95 µM) | 0.2 (≈ 0.378 µM) | 0.39 (≈ 0.738 µM) | 0.05 (≈ 0.0946 µM) | 0.025 (≈ 0.0473 µM) | 0.1 (≈ 0.189 µM) | 0.012 (≈ 0.0227 µM) | 0.025 (≈ 0.0473 µM) | 0.025 (≈ 0.0473 µM) | 0.012 (≈ 0.0227 µM) | 0.05 (≈ 0.0946 µM) | 0.78 (≈ 1.48 µM) | 0.2 (≈ 0.378 µM) | 1.56 (≈ 2.95 µM) | 0.05 (≈ 0.0946 µM) | 0.012 (≈ 0.0227 µM) | 0.025 (≈ 0.0473 µM) | CO/N=C(\C(=O)N[C@@H]1C(=O)N2C(C(=O)[O-])=C(C[n+]3ccn4cccc4c3C)CS[C@H]12)c1nsc(N)n1 [Ex. 57, 7-β-[(Z)-2-(5-amino-1,2,4-thiadiazol-3-yl)-2-methoxyiminoacetamido]-3-(1-methylpyrrolo[1,2-a]-pyrazinium-2-yl)methyl-3-cephem-4-carboxylate] |
